The source of these data is patent publication EP0484785B1, “Use of xanthines for the preparation of a medicament effective for inhibiting the replication of human retroviruses” (HOECHST-ROUSSEL PHARMACEUTICALS INCORPORATED, priority 1990, dated 1992).

For one data set, the system named is HIV-1 LTR. The data set can be described thus: HIV-1 LTR-mediated gene expression, CAT activity in U38 cells. It is filed as cell-based, human. On the set-up: CAT activity: unit not given here. The following applies: for CAT activity: 2 days. Here is the method: Down-regulation of gene expression mediated by the HIV-1 LTR: U38 cells (Felber BK, Pavlakis GN. Science 1988, 239:184-187) were cultured in the presence or absence of 10 ng/ml phorbol-12-myristate-13-acetate (PMA). U38 cells were derived from the monocytoid human cell line U937 and contain integrated copies of the HIV-1 LTR ligated to the chloramphenicol acetyl transferase (CAT) gene. These cells have been kindly provided by Dr. Barbara Felber (National Cancer Institute, Frederick, Maryland, USA). Two hours later, the cells were washed once in phosphate-buffered saline (PBS) and cultured in the presence of various concentrations of pentoxifylline. After 2 days, cell viability was tested by trypan blue staining, and the activity of CAT was measured as described previously (Sodroski, J. et al., Science 1985, 227:171-173) after standardizing the cell extracts for protein content.

The test system of data set [1] is peripheral blood mononuclear cells (PBM). It is filed as cell-based. The conditions noted are these: human, 7 days. Here is the method:
(§1) Human peripheral blood mononuclear cells (PBM) were obtained by Ficoll-Hypaque gradient centrifugation of blood donated by normal HIV-1 sero-negative individuals. PBM were cultured in RPMI-1640 supplemented with 20% fetal calf serum, penicillin, streptomycin and L-glutamine. After stimulating cells overnight with 15 µg/ml of concanavalin A, they were maintained in 10 units/ml interleukin-2 (IL-2) for the duration of the assay. To test for the inhibition of HIV-1 replication in PBM by pentoxifylline, PBM were pretreated with various concentrations of pentoxifylline for 4 hours after which HIV-1 (10⁴ cpm units of RT activity) was added to the cultures. The cells remained in the appropriate concentrations of the drug for a total of 7 days at which point the RT activity was measured in cell-free supernatants. In parallel, the cytotoxicity was analyzed by trypan blue staining of uninfected PBM treated for 7 days with various concentrations of pentoxifylline. The results are expressed as percent of untreated controls.

The subject of a further data set is Jurkat cells. It is filed as cell-based. The conditions noted are these: human, 7 days. The method, then:
(§2) Human Jurkat cells (a CD4⁺ T-cell lymphoma line) were grown in RPMI-1640 supplemented with 10% fetal calf serum, penicillin, streptomycin and L-glutamine. HIV-1 was produced in Jurkat cells. During the log phase of growth, cell-free supernatant was harvested, tested for RT activity (according to the method of Dayton et al., Cell 1986, 44:941-947) and frozen in aliquots at -70°C until use. Jurkat cells were pretreated with pentoxifylline at various concentrations for 4 hours after which HIV-1 (10⁴ cpm units of RT activity) was added to the cultures. The cells remained in the appropriate concentration of pentoxifylline for a total of 7 days, at which point the RT activity was measured in cell-free supernatants. In parallel, cell viability was tested by trypan blue staining of uninfected Jurkat cells treated for 7 days with various concentrations of pentoxifylline. The results are expressed as a percent of control.

Data set [2] concerns HIV-1. The data set can be described thus: HIV-1 replication in acutely infected peripheral blood mononuclear cells, reverse transcriptase activity in cell-free supernatants. It is filed as cell-based. The conditions noted are these: for Reverse Transcriptase (% control): PBM, 4 h pretreatment, 7 days. Here is the method: as §1
The test system of data set [3] is HIV-1. The data set can be described thus: HIV-1 replication in acutely infected Jurkat cells, reverse transcriptase activity in cell-free supernatants. The conditions noted are these: for Reverse Transcriptase (% control): Jurkat cells, 4 h pretreatment, 7 days. It is filed as cell-based. The method, then: as §2

Like-named read-outs stand apart in the source and are kept apart here.

`CC(=O)CCCCn1c(=O)c2c(ncn2C)n(C)c1=O` [Pentoxifylline, pentoxifylline]: the CAT activity is recorded as 4.91 in the data set with HIV-1 LTR (Phorbol ester-non-stimulated, pentoxifylline 50 micromolar); 3.75 with HIV-1 LTR (Phorbol ester-non-stimulated, pentoxifylline 100 micromolar); 2.95 in the data set on HIV-1 LTR (Phorbol ester-non-stimulated, pentoxifylline 500 micromolar); 2.81 in the data set with HIV-1 LTR (Phorbol ester-non-stimulated, pentoxifylline 1000 micromolar); 50.4 with HIV-1 LTR (Phorbol ester-stimulated (10 ng/ml PMA), pentoxifylline 50 micromolar); 23.9 in the data set on HIV-1 LTR (Phorbol ester-stimulated (10 ng/ml PMA), pentoxifylline 100 micromolar). The CAT activity with HIV-1 LTR (Phorbol ester-stimulated (10 ng/ml PMA), pentoxifylline 500 micromolar) is on record as 20.3; in the data set with HIV-1 LTR (Phorbol ester-stimulated (10 ng/ml PMA), pentoxifylline 1000 micromolar), 19.5. The “chloramphenicol transacetylase activity (CAT)” value in the data set with HIV-1 LTR (U38 cells, whether or not first pretreated with phorbol ester) was “decreased”. Moreover, the entries for the “Viability (% control)” value in data set [1] (50 micromolar), in data set [1] (500 micromolar) and in data set [1] (1000 micromolar) were 93.5 % control, 84.8 % control and 50.0 % control, respectively. For the same molecule, the Cell viability with Jurkat cells is reported as > 95%. Further, the “Reverse Transcriptase (% control)” value with HIV-1 [2] (pentoxifylline 25 micromolar) was 75.5 % control; in the data set with HIV-1 [2] (pentoxifylline 50 micromolar), 72.9 % control; in the data set on HIV-1 [2] (pentoxifylline 250 micromolar), 30.0 % control; with HIV-1 [2] (pentoxifylline 500 micromolar), 22.7 % control; in the data set with HIV-1 [2] (pentoxifylline 1000 micromolar), 18.6 % control; in the data set with HIV-1 [3] (pentoxifylline 50 micromolar), 84.6 % control. The results for the “Reverse Transcriptase (% control)” value with HIV-1 [3] (pentoxifylline 100 micromolar), in the data set on HIV-1 [3] (pentoxifylline 500 micromolar) and in the data set with HIV-1 [3] (pentoxifylline 1000 micromolar) were 72.9 % control, 69.5 % control and 55.0 % control, respectively. Also, the “HIV-1 replication as measured by reverse transcriptase activity” value with HIV-1 [2] (peripheral blood mononuclear cells acutely infected with HIV-1) and in the data set on HIV-1 [3] (Jurkat cells acutely infected with HIV) was “decreased” in each case.
